Experimental data taken from patent US20050064412A1, “Method of evaluating degree of canceration of mammal-origin specimen” (priority 2001, published 2005).

What was measured:
Format in all cases: cell-based, human
3OST2 gene [1] = test: Methylation-specific PCR of 3OST2 gene after culture with methylation inhibitor (MDA-MB-468); conditions: breast cancer cell line MDA-MB-468 cultured in the presence of 0.5 μM 5Aza-dC, FIG. 2
Procedure: (§1) Two kinds of human-derived breast cancer cell lines (MCF-7, MDA-MB-468) and human-derived normal mammary gland epithelial cell (HMEC) were seeded at a density of 3 to 6×10^5 cells/10 cm plate, and cultured using RPMI or DMEM or an exclusively used medium. On the first day after seeding, 5-aza-2′-deoxytidine (manufactured by sigma) (hereinafter, referred to as 5Aza-dC) which is a methylation inhibitor was added to a medium to give the concentration of 0.5 to 6 μM. Twenty four hours after addition of 5Aza-Dc, the medium was exchanged with the aforementioned medium to which no 5Aza-dC was added, and culturing was continued. Then, on the third day after seeding, 5Aza-dC was added to the medium similarly. On the fourth day after seeding, cells were recovered, and a genomic DNA was extracted and recovered from the recovered cells according to the same manner as that of Example 1. Further, according to the same manner as that of Example 2, a RNA was extracted and recovered.
(§2) The extracted and recovered genomic DNA was treated with sodium bisulfite according to the same manner as that of Example 1. The resulting DNA was used as a template and PCR was performed using unmethylation-specific primers U2 and U3, or methylation-specific primers M3 and M4 shown below. […]

3OST2 gene [2] = test: RT-PCR of 3OST2 gene mRNA after culture with methylation inhibitor (MDA-MB-468); conditions: FIG. 3
Procedure: The thus obtained RNA was treated with DNaseI (Life Technologies), and this was used as a template and Superscript II (Life Technologies) was used to synthesize a cDNA according to a protocol attached to the enzyme. By performing PCR using the synthesized cDNA as a template and using 3OST2 S and 3OST2 A shown below as a primer pair, a DNA derived from a mRNA of 3OST2 gene was amplified. Thereupon, as a control by performing PCR using the aforementioned cDNA as a template and using GAPDH S and GAPDH A solution below as a primer pair, a DNA derived from a mRNA of a GAPDH gene was amplified.
A reaction solution PCR was used which was obtained by mixing 20 ng of a cDNA as a template, each 0.25 μl of two kinds of 25 pmol/μl aforementioned primer solution, 0.5 μl of 10 mM dNTP, 2.5 μl of 10× buffer (100 mM Tris-HCl pH 8.3, 500 mM KCl, 20 mM MgCl2) and 0.15 μl of a 5 U/μl thermostable DNA polymerase, and adding sterilized ultrapure water thereto to an amount of solution of 25 μl. When a DNA derived from mRNA of 3OST2 gene was amplified, PCR was performed at the conditions under which the reaction solution was retained at 94° C. for 10 minutes, 28 cycles of temperature maintenance were performed, each cycle was 30 seconds at 94° C., 30 seconds at 45° C. and 60 seconds at 72° C., and a temperature was maintained at 72° C. for 10 minutes. […]

3OST2 gene [3] = test: Methylation-specific PCR of 3OST2 gene after culture with methylation inhibitor (MCF-7); conditions: breast cancer cell line MCF-7 cultured in the presence of 6 μM 5Aza-dC, FIG. 2
Procedure: as §1, §2

Structure (SMILES): Nc1ncn([C@H]2C[C@H](O)[C@@H](CO)O2)c(=O)n1 [5Aza-dC, 5-aza-2′-deoxytidine]
- methylation status of cytosines 1260, 1271, 1281, 1410, 1418, 1423 and 1425 of SEQ ID NO: 1 (3OST2 gene) (3OST2 gene [1]): not methylated in almost genomic DNAs
- DNA (161 bp) derived from a mRNA of 3OST2 gene (expression) (3OST2 gene [2]; MAD-MB-468 cultured in the presence of 0.5 μM 5Aza-dC): detected
- DNA (161 bp) derived from a mRNA of 3OST2 gene (expression) (3OST2 gene [2]; MAD-MB-468 cultured in the presence of 1 μM 5Aza-dC): detected
- methylation status of cytosines 1260, 1271, 1281, 1410, 1418, 1423 and 1425 of SEQ ID NO: 1 (3OST2 gene) (3OST2 gene [3]): not methylated in genomic DNAs of approximately half of cells
